PubChem BioAssay (NCI)
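Each compound was tested at five concentrations against cells in 96-well plates for 48 hours. At the GI50, growth is halved. TGI: concentration producing complete growth inhibition.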

How the values were obtained:
Assay in all cases: NCI tumour cell line growth inhibition, 48 h; in the data active = GI50 below about 0.43 µM; inactive = the rest
A498 renal = tested on: A498 renal
A549 NSCLC = tested on: A549 NSCLC
ACHN renal = tested on: ACHN renal
BT-549 breast = tested on: BT-549 breast
CAKI-1 renal = tested on: CAKI-1 renal
COLO 205 colon = tested on: COLO 205 colon
DU-145 prostate = tested on: DU-145 prostate
HCC-2998 colon = tested on: HCC-2998 colon
HCT-15 colon = tested on: HCT-15 colon
HL-60(TB) leukemia = tested on: HL-60(TB) leukemia
HOP-62 NSCLC = tested on: HOP-62 NSCLC
HOP-92 NSCLC = tested on: HOP-92 NSCLC
HS 578T breast = tested on: HS 578T breast
HT29 colon = tested on: HT29 colon
IGROV1 ovarian = tested on: IGROV1 ovarian
K-562 leukemia = tested on: K-562 leukemia
KM12 colon = tested on: KM12 colon
LOX IMVI melanoma = tested on: LOX IMVI melanoma
M14 melanoma = tested on: M14 melanoma
MALME-3M melanoma = tested on: MALME-3M melanoma
MCF7 breast = tested on: MCF7 breast
MDA-MB-231 breast = tested on: MDA-MB-231 breast
MDA-MB-435 = tested on: MDA-MB-435
MOLT-4 leukemia = tested on: MOLT-4 leukemia
NCI-H226 lung = tested on: NCI-H226 lung
NCI-H460 lung = tested on: NCI-H460 lung
NCI-H522 lung = tested on: NCI-H522 lung
NCI/ADR-RES ovarian = tested on: NCI/ADR-RES ovarian
OVCAR-3 ovarian = tested on: OVCAR-3 ovarian
OVCAR-4 ovarian = tested on: OVCAR-4 ovarian
OVCAR-5 ovarian = tested on: OVCAR-5 ovarian
PC-3 prostate = tested on: PC-3 prostate
RPMI-8226 leukemia = tested on: RPMI-8226 leukemia
RXF 393 renal = tested on: RXF 393 renal
SF-295 CNS = tested on: SF-295 CNS
SF-539 CNS = tested on: SF-539 CNS
SK-MEL-2 melanoma = tested on: SK-MEL-2 melanoma
SK-MEL-28 melanoma = tested on: SK-MEL-28 melanoma
SK-MEL-5 melanoma = tested on: SK-MEL-5 melanoma
SK-OV-3 ovarian = tested on: SK-OV-3 ovarian
SN12C renal = tested on: SN12C renal
SNB-75 CNS = tested on: SNB-75 CNS
SR leukemia = tested on: SR leukemia
SW-620 colon = tested on: SW-620 colon
T-47D breast = tested on: T-47D breast
TK-10 renal = tested on: TK-10 renal
U251 CNS = tested on: U251 CNS
UACC-257 melanoma = tested on: UACC-257 melanoma
UACC-62 melanoma = tested on: UACC-62 melanoma
UO-31 renal = tested on: UO-31 renal
786-0 renal = tested on: 786-0 renal
CCRF-CEM leukemia = tested on: CCRF-CEM leukemia
EKVX NSCLC = tested on: EKVX NSCLC
HCT-116 colon = tested on: HCT-116 colon
NCI-H23 lung = tested on: NCI-H23 lung
OVCAR-8 ovarian = tested on: OVCAR-8 ovarian
SF-268 CNS = tested on: SF-268 CNS
SNB-19 CNS = tested on: SNB-19 CNS

COc1cc(/C=N/Nc2ccnc3cc(Cl)ccc23)cc(OC)c1O
3.02 µM: TGI (CAKI-1 renal)
4.51 µM: TGI (NCI/ADR-RES ovarian)
3.43 µM: TGI (HCT-15 colon)
4.05 µM: TGI (MDA-MB-231 breast)
3.61 µM: TGI (DU-145 prostate)
3.56 µM: TGI (SN12C renal)
3.63 µM: TGI (IGROV1 ovarian) | TGI (OVCAR-4 ovarian)
6.05 µM: TGI (KM12 colon)
38.5 µM: TGI (A498 renal)
3070 nM: TGI (MDA-MB-435)
3.31 µM: TGI (RXF 393 renal)
3.27 µM: TGI (BT-549 breast)
3.21 µM: TGI (A549 NSCLC) | TGI (SK-MEL-28 melanoma)
2890 nM: TGI (HOP-92 NSCLC)
3.26 µM: TGI (U251 CNS)
5.47 µM: TGI (OVCAR-3 ovarian)
4.72 µM: TGI (SR leukemia)
3.12 µM: TGI (UO-31 renal)
3.22 µM: TGI (M14 melanoma)
4.78 µM: TGI (RPMI-8226 leukemia)
3.46 µM: TGI (K-562 leukemia)
3.73 µM: TGI (NCI-H460 lung)
3.44 µM: TGI (MALME-3M melanoma)
3.9 µM: TGI (T-47D breast)
3.08 µM: TGI (OVCAR-5 ovarian) | TGI (SNB-75 CNS)
3.86 µM: TGI (HL-60(TB) leukemia)
3.32 µM: TGI (SF-295 CNS)
4.44 µM: TGI (HS 578T breast)
3200 nM: TGI (NCI-H522 lung)
3.16 µM: TGI (SF-539 CNS)
3.17 µM: TGI (SK-MEL-5 melanoma)
3.3 µM: TGI (UACC-257 melanoma)
3.65 µM: TGI (LOX IMVI melanoma)
inactive: GI50 (A498 renal) 18.9 µM | GI50 (A549 NSCLC) 1.74 µM | GI50 (ACHN renal) 1.83 µM | GI50 (BT-549 breast) 1750 nM | GI50 (CAKI-1 renal) 1660 nM | GI50 (COLO 205 colon) 1.86 µM | GI50 (DU-145 prostate) 1.9 µM | GI50 (HCC-2998 colon) 1.73 µM | GI50 (HCT-15 colon) 1780 nM | GI50 (HL-60(TB) leukemia) 1890 nM | GI50 (HOP-62 NSCLC) 1.69 µM | GI50 (HOP-92 NSCLC) 1440 nM | GI50 (HS 578T breast) 2030 nM | GI50 (HT29 colon) 1.81 µM | GI50 (IGROV1 ovarian) 1850 nM | GI50 (K-562 leukemia) 1630 nM | GI50 (KM12 colon) 2390 nM | GI50 (LOX IMVI melanoma) 2150 nM | GI50 (M14 melanoma) 1760 nM | GI50 (MALME-3M melanoma) 1.87 µM | GI50 (MCF7 breast) 1580 nM | GI50 (MDA-MB-231 breast) 2.05 µM | GI50 (MDA-MB-435) 1690 nM | GI50 (MOLT-4 leukemia) 2360 nM | GI50 (NCI-H226 lung) 1.79 µM | GI50 (NCI-H460 lung) 2050 nM | GI50 (NCI-H522 lung) 1660 nM | GI50 (NCI/ADR-RES ovarian) 2130 nM | GI50 (OVCAR-3 ovarian) 2.41 µM | GI50 (OVCAR-4 ovarian) 1.85 µM | GI50 (OVCAR-5 ovarian) 1.67 µM | GI50 (PC-3 prostate) 1.66 µM | GI50 (RPMI-8226 leukemia) 2.18 µM | GI50 (RXF 393 renal) 1750 nM | GI50 (SF-295 CNS) 1790 nM | GI50 (SF-539 CNS) 1.75 µM | GI50 (SK-MEL-2 melanoma) 16.3 µM | GI50 (SK-MEL-28 melanoma) 1790 nM | GI50 (SK-MEL-5 melanoma) 1770 nM | GI50 (SK-OV-3 ovarian) 1.72 µM | GI50 (SN12C renal) 1800 nM | GI50 (SNB-75 CNS) 1.67 µM | GI50 (SR leukemia) 1900 nM | GI50 (SW-620 colon) 1690 nM | GI50 (T-47D breast) 1800 nM | GI50 (TK-10 renal) 1810 nM | GI50 (U251 CNS) 1810 nM | GI50 (UACC-257 melanoma) 1770 nM | GI50 (UACC-62 melanoma) 1710 nM | GI50 (UO-31 renal) 1690 nM
3.66 µM: TGI (SW-620 colon)
3.37 µM: TGI (MCF7 breast)
3.13 µM: TGI (HOP-62 NSCLC)
3.34 µM: TGI (HT29 colon)
3.23 µM: TGI (ACHN renal) | TGI (HCC-2998 colon)
3.18 µM: TGI (PC-3 prostate)
3.14 µM: TGI (SK-OV-3 ovarian)
3.42 µM: TGI (COLO 205 colon)
5.71 µM: TGI (MOLT-4 leukemia)
3.67 µM: TGI (NCI-H226 lung)
3.25 µM: TGI (TK-10 renal) | TGI (UACC-62 melanoma)
32.8 µM: TGI (SK-MEL-2 melanoma)

CS(=O)(=O)c1ccc2c(c1)c1c(n2C(=O)c2ccc(Cl)cc2)CCCC1
64.9 µM: TGI (SNB-75 CNS)
> 100000 nM: TGI (HOP-92 NSCLC)
46.3 µM: TGI (OVCAR-3 ovarian)
> 100 µM: TGI (786-0 renal) | TGI (A498 renal) | TGI (A549 NSCLC) | TGI (ACHN renal) | TGI (BT-549 breast) | TGI (CAKI-1 renal) | TGI (CCRF-CEM leukemia) | TGI (COLO 205 colon) | TGI (DU-145 prostate) | TGI (EKVX NSCLC) | TGI (HCC-2998 colon) | TGI (HCT-116 colon) | TGI (HCT-15 colon) | TGI (HOP-62 NSCLC) | TGI (HS 578T breast) | TGI (IGROV1 ovarian) | TGI (K-562 leukemia) | TGI (KM12 colon) | TGI (LOX IMVI melanoma) | TGI (M14 melanoma) | TGI (MALME-3M melanoma) | TGI (MCF7 breast) | TGI (MDA-MB-231 breast) | TGI (MOLT-4 leukemia) | TGI (NCI-H226 lung) | TGI (NCI-H23 lung) | TGI (NCI-H460 lung) | TGI (NCI/ADR-RES ovarian) | TGI (OVCAR-4 ovarian) | TGI (OVCAR-5 ovarian) | TGI (OVCAR-8 ovarian) | TGI (PC-3 prostate) | TGI (RPMI-8226 leukemia) | TGI (SF-268 CNS) | TGI (SF-295 CNS) | TGI (SK-MEL-2 melanoma) | TGI (SK-MEL-28 melanoma) | TGI (SK-MEL-5 melanoma) | TGI (SK-OV-3 ovarian) | TGI (SN12C renal) | TGI (SNB-19 CNS) | TGI (SR leukemia) | TGI (SW-620 colon) | TGI (T-47D breast) | TGI (TK-10 renal) | TGI (U251 CNS) | TGI (UACC-257 melanoma) | TGI (UACC-62 melanoma) | TGI (UO-31 renal)
67.4 µM: TGI (HT29 colon)
1510 nM: TGI (MDA-MB-435)
inactive: GI50 (786-0 renal) 3.4 µM | GI50 (A498 renal) > 100 µM | GI50 (A549 NSCLC) 13.5 µM | GI50 (ACHN renal) 5.1 µM | GI50 (BT-549 breast) 1640 nM | GI50 (CAKI-1 renal) 2190 nM | GI50 (CCRF-CEM leukemia) 2050 nM | GI50 (COLO 205 colon) 18.9 µM | GI50 (DU-145 prostate) 7.52 µM | GI50 (EKVX NSCLC) 14 µM | GI50 (HCC-2998 colon) 16.8 µM | GI50 (HCT-116 colon) 1270 nM | GI50 (HCT-15 colon) 1320 nM | GI50 (HL-60(TB) leukemia) 1130 nM | GI50 (HOP-62 NSCLC) 4.48 µM | GI50 (HOP-92 NSCLC) 2630 nM | GI50 (HS 578T breast) 1410 nM | GI50 (HT29 colon) 4.34 µM | GI50 (IGROV1 ovarian) 3340 nM | GI50 (K-562 leukemia) 1310 nM | GI50 (KM12 colon) 1590 nM | GI50 (LOX IMVI melanoma) 2430 nM | GI50 (M14 melanoma) 1560 nM | GI50 (MALME-3M melanoma) 7.23 µM | GI50 (MCF7 breast) 1080 nM | GI50 (MDA-MB-231 breast) 6.83 µM | GI50 (MDA-MB-435) 614 nM | GI50 (MOLT-4 leukemia) 2860 nM | GI50 (NCI-H226 lung) 4.62 µM | GI50 (NCI-H23 lung) 28.2 µM | GI50 (NCI-H460 lung) 1500 nM | GI50 (NCI-H522 lung) 717 nM | GI50 (NCI/ADR-RES ovarian) 1400 nM | GI50 (OVCAR-3 ovarian) 5.01 µM | GI50 (OVCAR-4 ovarian) 21.1 µM | GI50 (OVCAR-5 ovarian) 19.8 µM | GI50 (OVCAR-8 ovarian) 6.49 µM | GI50 (PC-3 prostate) 4.75 µM | GI50 (RPMI-8226 leukemia) 4.6 µM | GI50 (RXF 393 renal) 4230 nM | GI50 (SF-268 CNS) 21.5 µM | GI50 (SF-295 CNS) 1960 nM | GI50 (SF-539 CNS) 6.31 µM | GI50 (SK-MEL-2 melanoma) 1.15 µM | GI50 (SK-MEL-28 melanoma) 2970 nM | GI50 (SK-MEL-5 melanoma) 2450 nM | GI50 (SK-OV-3 ovarian) 22.1 µM | GI50 (SN12C renal) 3430 nM | GI50 (SNB-19 CNS) 4.16 µM | GI50 (SNB-75 CNS) 5.05 µM | GI50 (SR leukemia) 1100 nM | GI50 (SW-620 colon) 1610 nM | GI50 (T-47D breast) 2540 nM | GI50 (TK-10 renal) > 100000 nM | GI50 (U251 CNS) 3410 nM | GI50 (UACC-257 melanoma) > 100000 nM | GI50 (UACC-62 melanoma) 1270 nM | GI50 (UO-31 renal) 3220 nM
40.7 µM: TGI (RXF 393 renal)
35 µM: TGI (SF-539 CNS)
2570 nM: TGI (NCI-H522 lung)
